From PMC9898036, “VIP152 is a selective CDK9 inhibitor with pre-clinical in vitro and in vivo efficacy in chronic lymphocytic leukemia” (Leukemia, 2022)
Where two headings read alike, the source gives them in different places.

Tests used:
LTK = LTK (Homo sapiens, UniProt P29376); assay: KINOMEscan: LTK; type: binding; details: 1000 nM, read-out: Percent Control
Neuropeptide Y Y1 = Neuropeptide Y Y1 (Homo sapiens, UniProt P25929); assay: Eurofins Diversity Panel; type: binding; details: hum, Conc. 10 μM
DYRK2 = DYRK2 (Homo sapiens, UniProt Q92630); assay: KINOMEscan: DYRK2; type: binding; details: 1000 nM, read-out: Percent Control
YANK1 = YANK1 (Homo sapiens, UniProt Q8WU08); assay: KINOMEscan: YANK1; type: binding; details: 100 nM, read-out: Percent Control
RIPK5 = RIPK5 (Homo sapiens, UniProt Q6XUX3); assay: KINOMEscan: RIPK5; type: binding; details: 100 nM, read-out: Percent Control
Potassium Channel [KATP] = Potassium Channel [KATP] (Cricetus cricetus, UniProt Q09427); assay: Eurofins Diversity Panel; type: binding, hamster; details: ham, Conc. 10 μM
Procedure: The structure and synthesis of VIP152 were recently described by Lücking et al.. (Fig. 1A); however, the selectivity of the molecule in cellular systems has yet to be explored. […] We also performed this experiment at 1000 nM, where CDK9 was inhibited at 99%. […] We found a strong concordance between our data and those of Lücking when comparing the most inhibited kinases. Potential off-target effects of VIP152 were next tested in vitro at a concentration of 10 µM for off-target activity against a broad range of receptors, transporters, ion channels, and enzymes (n = 138) using the Eurofins Diversity Panel.

MST2 = MST2 (Homo sapiens, UniProt Q13188); assay: KINOMEscan: MST2; type: binding; details: 1000 nM, read-out: Percent Control
human kinome [1] = target: human kinome (Homo sapiens, UniProt Q9UM73, C1156Y); assay: DiscoverX KINOMEscan kinase profiling (468 assays); type: binding; details: ALK(C1156Y); 100 nM; read-out: Percent Control
Procedure: (§1) Kinomescan Kinase Profiling Assay
(§2) Kinomescan Assay was performed at DiscoverRX and described in Fabian, et al. 2005, Nat.
(§3) Biotechnol. In brief, kinases were produced and subsequently tagged with DNA for qPCR detection.
(§4) Streptavidin-coated magnetic beads were bound to biotinylated kinase ligands to serve as a solid support.
(§5) VIP152 was dissolved in DMSO and tested across a 10 serial threefold dilution set and compared to a test
(§6) compound and a DMSO control.
(§7) Kinome map was produced via TreeSpot
(§8) Analysis from DiscoverRX. […]

human kinome [2] = target: human kinome (Homo sapiens, UniProt P42685); assay: DiscoverX KINOMEscan kinase profiling (468 assays); type: binding; details: FRK; 100 nM; read-out: Percent Control
Procedure: as §1, §2, §3, §4, §5, §6, §7, §8

human kinome [3] = target: human kinome (Homo sapiens, UniProt P42338); assay: DiscoverX KINOMEscan kinase profiling (468 assays); type: binding; details: read-out: Percent Control
Procedure: as §1, §2, §3, §4, §5, §6, §7, §8

human kinome [4] = target: human kinome (Homo sapiens, UniProt O76039); assay: DiscoverX KINOMEscan kinase profiling (468 assays); type: binding; details: CDKL5; 100 nM; read-out: Percent Control
Procedure: as §1, §2, §3, §4, §5, §6, §7, §8

human kinome [5] = target: human kinome (Homo sapiens, UniProt O96013); assay: DiscoverX KINOMEscan kinase profiling (468 assays); type: binding; details: read-out: Percent Control
Procedure: as §1, §2, §3, §4, §5, §6, §7, §8

human kinome [6] = target: human kinome (Homo sapiens, UniProt Q9UF33); assay: DiscoverX KINOMEscan kinase profiling (468 assays); type: binding; details: EPHA6; 100 nM; read-out: Percent Control
Procedure: as §1, §2, §3, §4, §5, §6, §7, §8

human kinome [7] = target: human kinome (Homo sapiens, UniProt Q13464); assay: DiscoverX KINOMEscan kinase profiling (468 assays); type: binding; details: kinase ROCK1 (Entrez ROCK1); compound concentration 1000 nM; read-out: Percent Control
Procedure: as §1, §2, §3, §4, §5, §6, §7, §8

human kinome [8] = target: human kinome (Homo sapiens, UniProt P36888, N841I); assay: DiscoverX KINOMEscan kinase profiling (468 assays); type: binding; details: FLT3(N841I); 100 nM; read-out: Percent Control
Procedure: as §1, §2, §3, §4, §5, §6, §7, §8

human kinome [9] = target: human kinome (Homo sapiens, UniProt P06213); assay: DiscoverX KINOMEscan kinase profiling (468 assays); type: binding; details: INSR; 100 nM; read-out: Percent Control
Procedure: as §1, §2, §3, §4, §5, §6, §7, §8

human kinome [10] = target: human kinome (Homo sapiens, UniProt P29323); assay: DiscoverX KINOMEscan kinase profiling (468 assays); type: binding; details: EPHB2; 100 nM; read-out: Percent Control
Procedure: as §1, §2, §3, §4, §5, §6, §7, §8

human kinome [11] = target: human kinome (Homo sapiens, UniProt P35626); assay: DiscoverX KINOMEscan kinase profiling (468 assays); type: binding; details: GRK3 (Entrez ADRBK2); 100 nM; read-out: Percent Control
Procedure: as §1, §2, §3, §4, §5, §6, §7, §8

human kinome [12] = target: human kinome (Homo sapiens, UniProt Q14012); assay: DiscoverX KINOMEscan kinase profiling (468 assays); type: binding; details: CAMK1; 100 nM; read-out: Percent Control
Procedure: as §1, §2, §3, §4, §5, §6, §7, §8

human kinome [13] = target: human kinome (Homo sapiens, UniProt P36888, K663Q); assay: DiscoverX KINOMEscan kinase profiling (468 assays); type: binding; details: FLT3(K663Q); 100 nM; read-out: Percent Control
Procedure: as §1, §2, §3, §4, §5, §6, §7, §8

human kinome [14] = target: human kinome (Homo sapiens, UniProt P23458); assay: DiscoverX KINOMEscan kinase profiling (468 assays); type: binding; details: 100 nM, read-out: Percent Control
Procedure: as §1, §2, §3, §4, §5, §6, §7, §8

human kinome [15] = target: human kinome (Homo sapiens, UniProt Q5VT25); assay: DiscoverX KINOMEscan kinase profiling (468 assays); type: binding; details: MRCKA (Entrez CDC42BPA); 100 nM; read-out: Percent Control
Procedure: as §1, §2, §3, §4, §5, §6, §7, §8

human kinome [16] = target: human kinome (Homo sapiens, UniProt P42336); assay: DiscoverX KINOMEscan kinase profiling (468 assays); type: binding; details: read-out: Percent Control
Procedure: as §1, §2, §3, §4, §5, §6, §7, §8

human kinome [17] = target: human kinome (Homo sapiens, UniProt O95747); assay: DiscoverX KINOMEscan kinase profiling (468 assays); type: binding; details: read-out: Percent Control
Procedure: as §1, §2, §3, §4, §5, §6, §7, §8

human kinome [18] = target: human kinome (Homo sapiens, UniProt P37023); assay: DiscoverX KINOMEscan kinase profiling (468 assays); type: binding; details: ACVRL1; 100 nM; read-out: Percent Control
Procedure: as §1, §2, §3, §4, §5, §6, §7, §8

human kinome [19] = target: human kinome (Homo sapiens, UniProt Q92630); assay: DiscoverX KINOMEscan kinase profiling (468 assays); type: binding; details: DYRK2; 100 nM; read-out: Percent Control
Procedure: as §1, §2, §3, §4, §5, §6, §7, §8

human kinome [20] = target: human kinome (Homo sapiens, UniProt Q9H1R3); assay: DiscoverX KINOMEscan kinase profiling (468 assays); type: binding; details: read-out: Percent Control
Procedure: as §1, §2, §3, §4, §5, §6, §7, §8

human kinome [21] = target: human kinome (Homo sapiens, UniProt Q96BR1); assay: DiscoverX KINOMEscan kinase profiling (468 assays); type: binding; details: kinase SGK3 (Entrez SGK3); compound concentration 1000 nM; read-out: Percent Control
Procedure: as §1, §2, §3, §4, §5, §6, §7, §8

human kinome [22] = target: human kinome (Homo sapiens, UniProt Q16584); assay: DiscoverX KINOMEscan kinase profiling (468 assays); type: binding; details: MLK3 (Entrez MAP3K11); 100 nM; read-out: Percent Control
Procedure: as §1, §2, §3, §4, §5, §6, §7, §8

Sequence of human kinome (Homo sapiens, UniProt O96013) (O96013 whole entry): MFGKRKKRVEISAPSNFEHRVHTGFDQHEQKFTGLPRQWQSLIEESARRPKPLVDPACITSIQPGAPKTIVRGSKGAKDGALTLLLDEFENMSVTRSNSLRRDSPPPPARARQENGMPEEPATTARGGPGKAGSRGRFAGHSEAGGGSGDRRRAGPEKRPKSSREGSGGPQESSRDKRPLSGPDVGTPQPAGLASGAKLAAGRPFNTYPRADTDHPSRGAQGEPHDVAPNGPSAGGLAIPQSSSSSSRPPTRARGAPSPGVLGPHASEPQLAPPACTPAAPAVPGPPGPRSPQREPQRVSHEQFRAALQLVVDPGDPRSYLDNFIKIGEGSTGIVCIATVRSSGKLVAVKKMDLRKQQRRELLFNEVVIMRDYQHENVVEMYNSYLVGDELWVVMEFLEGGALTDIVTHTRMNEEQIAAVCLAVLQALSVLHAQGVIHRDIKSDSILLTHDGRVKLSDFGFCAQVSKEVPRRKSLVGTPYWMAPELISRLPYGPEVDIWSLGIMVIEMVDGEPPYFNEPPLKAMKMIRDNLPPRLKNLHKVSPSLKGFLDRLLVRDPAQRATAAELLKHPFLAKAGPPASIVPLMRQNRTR
Sequence of human kinome (Homo sapiens, UniProt P23458) (P23458 whole entry): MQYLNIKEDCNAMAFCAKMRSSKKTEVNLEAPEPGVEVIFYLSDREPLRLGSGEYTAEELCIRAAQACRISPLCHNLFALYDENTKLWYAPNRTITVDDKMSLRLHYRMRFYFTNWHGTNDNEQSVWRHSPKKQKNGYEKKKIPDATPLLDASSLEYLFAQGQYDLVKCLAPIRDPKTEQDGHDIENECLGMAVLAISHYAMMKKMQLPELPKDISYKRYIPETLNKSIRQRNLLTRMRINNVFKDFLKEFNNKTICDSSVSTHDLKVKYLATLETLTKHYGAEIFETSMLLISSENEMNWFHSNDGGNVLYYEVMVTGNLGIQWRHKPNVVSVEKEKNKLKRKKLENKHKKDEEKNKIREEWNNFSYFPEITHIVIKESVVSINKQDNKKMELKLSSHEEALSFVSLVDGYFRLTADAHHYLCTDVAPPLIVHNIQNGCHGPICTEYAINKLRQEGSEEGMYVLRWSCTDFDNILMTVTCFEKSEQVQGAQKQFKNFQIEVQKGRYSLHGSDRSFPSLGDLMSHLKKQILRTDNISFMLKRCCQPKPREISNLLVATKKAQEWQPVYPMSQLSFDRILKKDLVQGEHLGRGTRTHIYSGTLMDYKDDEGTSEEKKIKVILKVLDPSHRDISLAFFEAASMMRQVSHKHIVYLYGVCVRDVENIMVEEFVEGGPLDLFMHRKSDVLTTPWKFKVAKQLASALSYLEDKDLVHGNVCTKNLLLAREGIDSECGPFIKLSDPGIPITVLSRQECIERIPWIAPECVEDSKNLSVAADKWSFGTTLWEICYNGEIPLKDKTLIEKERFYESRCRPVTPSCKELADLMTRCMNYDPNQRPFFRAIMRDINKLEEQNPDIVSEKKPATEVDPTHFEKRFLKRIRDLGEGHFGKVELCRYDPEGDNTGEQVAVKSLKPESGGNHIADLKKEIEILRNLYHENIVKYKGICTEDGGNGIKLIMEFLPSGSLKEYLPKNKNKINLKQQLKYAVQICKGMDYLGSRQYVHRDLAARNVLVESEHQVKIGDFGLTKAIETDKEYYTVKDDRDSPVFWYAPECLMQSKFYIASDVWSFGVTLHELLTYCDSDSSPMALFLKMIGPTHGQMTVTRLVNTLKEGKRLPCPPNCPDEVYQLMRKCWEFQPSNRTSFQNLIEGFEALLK
Sequence of human kinome (Homo sapiens, UniProt P42338) (P42338 whole entry): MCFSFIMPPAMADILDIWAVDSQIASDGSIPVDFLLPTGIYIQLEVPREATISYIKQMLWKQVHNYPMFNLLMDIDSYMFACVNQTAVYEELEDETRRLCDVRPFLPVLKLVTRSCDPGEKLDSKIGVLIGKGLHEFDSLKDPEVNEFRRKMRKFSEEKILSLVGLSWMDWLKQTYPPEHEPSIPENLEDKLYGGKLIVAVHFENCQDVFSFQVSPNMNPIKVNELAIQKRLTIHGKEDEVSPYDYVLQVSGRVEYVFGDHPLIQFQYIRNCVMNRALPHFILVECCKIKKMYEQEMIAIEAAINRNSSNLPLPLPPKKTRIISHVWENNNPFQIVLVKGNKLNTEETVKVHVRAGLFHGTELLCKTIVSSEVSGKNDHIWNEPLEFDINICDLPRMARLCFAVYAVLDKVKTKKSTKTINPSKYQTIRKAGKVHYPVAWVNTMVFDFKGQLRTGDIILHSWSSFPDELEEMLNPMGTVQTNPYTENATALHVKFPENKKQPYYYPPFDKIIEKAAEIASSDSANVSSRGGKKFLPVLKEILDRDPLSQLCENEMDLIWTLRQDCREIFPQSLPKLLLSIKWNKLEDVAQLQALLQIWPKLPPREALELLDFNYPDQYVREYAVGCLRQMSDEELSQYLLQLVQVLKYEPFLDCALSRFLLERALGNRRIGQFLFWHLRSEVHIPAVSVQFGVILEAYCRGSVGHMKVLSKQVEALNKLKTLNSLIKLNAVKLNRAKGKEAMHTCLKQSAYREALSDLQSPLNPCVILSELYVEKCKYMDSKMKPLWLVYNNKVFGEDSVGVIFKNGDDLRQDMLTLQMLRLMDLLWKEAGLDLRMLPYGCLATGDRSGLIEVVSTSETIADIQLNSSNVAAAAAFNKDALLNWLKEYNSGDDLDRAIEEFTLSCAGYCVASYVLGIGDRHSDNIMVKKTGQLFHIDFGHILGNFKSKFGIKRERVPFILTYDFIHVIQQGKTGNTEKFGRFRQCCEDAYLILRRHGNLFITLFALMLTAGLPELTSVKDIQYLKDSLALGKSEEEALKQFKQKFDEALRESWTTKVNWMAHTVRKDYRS
Sequence of human kinome (Homo sapiens, UniProt Q9H1R3) (Q9H1R3 whole entry): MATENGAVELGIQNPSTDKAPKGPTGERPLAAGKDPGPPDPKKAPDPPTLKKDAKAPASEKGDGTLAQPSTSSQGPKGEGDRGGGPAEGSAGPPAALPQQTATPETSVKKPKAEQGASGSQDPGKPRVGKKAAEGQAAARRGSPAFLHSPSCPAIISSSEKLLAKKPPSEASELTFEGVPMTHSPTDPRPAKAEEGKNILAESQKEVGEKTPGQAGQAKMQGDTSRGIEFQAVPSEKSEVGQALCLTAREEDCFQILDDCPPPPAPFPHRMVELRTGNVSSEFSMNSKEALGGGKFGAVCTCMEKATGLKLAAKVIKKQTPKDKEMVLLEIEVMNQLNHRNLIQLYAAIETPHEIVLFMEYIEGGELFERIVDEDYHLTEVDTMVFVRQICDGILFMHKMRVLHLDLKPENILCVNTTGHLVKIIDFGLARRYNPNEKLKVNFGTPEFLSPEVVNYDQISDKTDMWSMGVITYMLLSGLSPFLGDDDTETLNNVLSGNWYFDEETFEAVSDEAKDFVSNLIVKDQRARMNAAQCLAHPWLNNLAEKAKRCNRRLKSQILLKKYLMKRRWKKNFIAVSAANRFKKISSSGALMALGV
Sequence of human kinome (Homo sapiens, UniProt P42336) (P42336 whole entry): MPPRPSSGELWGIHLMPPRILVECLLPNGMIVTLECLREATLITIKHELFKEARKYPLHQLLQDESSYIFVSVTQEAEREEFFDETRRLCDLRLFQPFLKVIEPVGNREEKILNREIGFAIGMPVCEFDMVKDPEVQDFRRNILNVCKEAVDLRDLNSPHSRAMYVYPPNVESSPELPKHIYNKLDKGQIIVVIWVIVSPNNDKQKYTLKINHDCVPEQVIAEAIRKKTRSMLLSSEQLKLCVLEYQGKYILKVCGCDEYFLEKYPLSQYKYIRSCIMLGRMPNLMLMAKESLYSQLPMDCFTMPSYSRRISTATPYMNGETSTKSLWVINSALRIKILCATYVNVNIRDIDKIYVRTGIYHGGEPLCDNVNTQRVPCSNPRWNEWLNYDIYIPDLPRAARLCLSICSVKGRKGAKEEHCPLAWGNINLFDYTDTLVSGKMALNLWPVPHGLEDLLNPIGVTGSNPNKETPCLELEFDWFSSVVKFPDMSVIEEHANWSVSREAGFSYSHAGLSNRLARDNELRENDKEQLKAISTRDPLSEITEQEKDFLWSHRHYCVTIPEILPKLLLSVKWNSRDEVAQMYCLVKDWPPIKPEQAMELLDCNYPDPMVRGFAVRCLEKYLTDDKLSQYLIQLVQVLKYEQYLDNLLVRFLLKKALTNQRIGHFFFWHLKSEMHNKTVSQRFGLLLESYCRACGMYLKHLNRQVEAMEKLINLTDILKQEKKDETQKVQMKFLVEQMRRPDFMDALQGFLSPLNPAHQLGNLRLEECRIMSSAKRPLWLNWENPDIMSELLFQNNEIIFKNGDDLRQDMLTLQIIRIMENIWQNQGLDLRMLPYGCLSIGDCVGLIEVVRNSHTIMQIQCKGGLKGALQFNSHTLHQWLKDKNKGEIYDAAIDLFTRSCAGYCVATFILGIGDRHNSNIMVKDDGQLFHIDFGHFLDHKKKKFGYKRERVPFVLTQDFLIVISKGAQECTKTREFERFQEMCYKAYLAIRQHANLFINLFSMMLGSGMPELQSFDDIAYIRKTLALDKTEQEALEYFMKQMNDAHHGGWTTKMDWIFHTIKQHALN
Sequence of human kinome (Homo sapiens, UniProt O95747) (O95747 whole entry): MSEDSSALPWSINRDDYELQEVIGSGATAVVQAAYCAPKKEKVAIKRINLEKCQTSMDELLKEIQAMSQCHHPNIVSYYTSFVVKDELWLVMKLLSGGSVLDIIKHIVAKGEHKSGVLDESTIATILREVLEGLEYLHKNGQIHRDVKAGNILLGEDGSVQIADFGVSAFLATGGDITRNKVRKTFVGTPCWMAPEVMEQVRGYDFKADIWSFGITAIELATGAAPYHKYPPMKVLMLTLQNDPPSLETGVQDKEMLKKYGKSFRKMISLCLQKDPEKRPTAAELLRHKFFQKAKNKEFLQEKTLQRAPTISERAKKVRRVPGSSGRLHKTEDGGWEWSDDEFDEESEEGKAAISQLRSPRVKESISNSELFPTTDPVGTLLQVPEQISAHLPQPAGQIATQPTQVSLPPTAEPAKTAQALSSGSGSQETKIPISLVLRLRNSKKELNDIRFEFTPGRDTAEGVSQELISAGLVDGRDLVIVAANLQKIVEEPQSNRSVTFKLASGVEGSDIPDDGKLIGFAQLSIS

With `COc1cc(F)ccc1-c1cc(Nc2cc(CS(C)(=N)=O)ccn2)ncc1F` (centres unmarked) [VIP152] the remaining binding at 1 µM (LTK) was 100%, the inhibition at 10 µM (Neuropeptide Y Y1) was -3% and the remaining binding at 1 µM (DYRK2) was 62%. The remaining binding at 0.1 µM (YANK1) was 100%, the remaining binding at 0.1 µM (RIPK5) was 83% and the inhibition at 10 µM (Potassium Channel [KATP]) was -19%. For the same compound, the remaining binding at 1 µM (MST2) was 96%, the remaining binding at 0.1 µM (human kinome [1]) was 100% and the remaining binding at 0.1 µM (human kinome [2]) was 100%. For the same compound, the remaining binding at 0.1 µM (human kinome [3]; PIK3CB, 100 nM) was 100%, the remaining binding at 1 µM (human kinome [3]; kinase PIK3CB (Entrez PIK3CB), compound concentration 1000 nM) was 100% and the remaining binding at 0.1 µM (human kinome [4]) was 100%. It also gave a remaining binding at 0.1 µM (human kinome [5]; PAK4, 100 nM) of 100%, a remaining binding at 1 µM (human kinome [5]; kinase PAK4 (Entrez PAK4), compound concentration 1000 nM) of 89% and a remaining binding at 0.1 µM (human kinome [6]) of 100%. The remaining binding at 1 µM (human kinome [7]) was 57%, the remaining binding at 0.1 µM (human kinome [8]) was 66% and the remaining binding at 0.1 µM (human kinome [9]) was 100%. For the same compound, the remaining binding at 0.1 µM (human kinome [10]) was 100%, the remaining binding at 0.1 µM (human kinome [11]) was 89% and the remaining binding at 0.1 µM (human kinome [12]) was 100%. It also gave a remaining binding at 0.1 µM (human kinome [13]) of 100%, a remaining binding at 0.1 µM (human kinome [14]; JAK1(JH1domain-catalytic)) of 87% and a remaining binding at 0.1 µM (human kinome [14]; JAK1(JH2domain-pseudokinase)) of 100%. The remaining binding at 0.1 µM (human kinome [15]) was 100%, the remaining binding at 0.1 µM (human kinome [16]; PIK3CA, 100 nM) was 100% and the remaining binding at 1 µM (human kinome [16]; kinase PIK3CA (Entrez PIK3CA), compound concentration 1000 nM) was 95%. It also gave a remaining binding at 0.1 µM (human kinome [17]; OSR1 (Entrez OXSR1), 100 nM) of 100%, a remaining binding at 1 µM (human kinome [17]; kinase OSR1 (Entrez OXSR1), compound concentration 1000 nM) of 100% and a remaining binding at 0.1 µM (human kinome [18]) of 77%. The remaining binding at 0.1 µM (human kinome [19]) was 99%, the remaining binding at 0.1 µM (human kinome [20]; MYLK2, 100 nM) was 100% and the remaining binding at 1 µM (human kinome [20]; kinase MYLK2 (Entrez MYLK2), compound concentration 1000 nM) was 91%. It also gave a remaining binding at 1 µM (human kinome [21]) of 60% and a remaining binding at 0.1 µM (human kinome [22]) of 100%.
